One test has as its target T1, human TLR7 (Homo sapiens, UniProt Q9NYK1).
T1 construct: host or cells: human HEK-Blue cells with NF-kB/AP1-inducible SEAP reporter
T1 sequence (Q9NYK1 27-1049): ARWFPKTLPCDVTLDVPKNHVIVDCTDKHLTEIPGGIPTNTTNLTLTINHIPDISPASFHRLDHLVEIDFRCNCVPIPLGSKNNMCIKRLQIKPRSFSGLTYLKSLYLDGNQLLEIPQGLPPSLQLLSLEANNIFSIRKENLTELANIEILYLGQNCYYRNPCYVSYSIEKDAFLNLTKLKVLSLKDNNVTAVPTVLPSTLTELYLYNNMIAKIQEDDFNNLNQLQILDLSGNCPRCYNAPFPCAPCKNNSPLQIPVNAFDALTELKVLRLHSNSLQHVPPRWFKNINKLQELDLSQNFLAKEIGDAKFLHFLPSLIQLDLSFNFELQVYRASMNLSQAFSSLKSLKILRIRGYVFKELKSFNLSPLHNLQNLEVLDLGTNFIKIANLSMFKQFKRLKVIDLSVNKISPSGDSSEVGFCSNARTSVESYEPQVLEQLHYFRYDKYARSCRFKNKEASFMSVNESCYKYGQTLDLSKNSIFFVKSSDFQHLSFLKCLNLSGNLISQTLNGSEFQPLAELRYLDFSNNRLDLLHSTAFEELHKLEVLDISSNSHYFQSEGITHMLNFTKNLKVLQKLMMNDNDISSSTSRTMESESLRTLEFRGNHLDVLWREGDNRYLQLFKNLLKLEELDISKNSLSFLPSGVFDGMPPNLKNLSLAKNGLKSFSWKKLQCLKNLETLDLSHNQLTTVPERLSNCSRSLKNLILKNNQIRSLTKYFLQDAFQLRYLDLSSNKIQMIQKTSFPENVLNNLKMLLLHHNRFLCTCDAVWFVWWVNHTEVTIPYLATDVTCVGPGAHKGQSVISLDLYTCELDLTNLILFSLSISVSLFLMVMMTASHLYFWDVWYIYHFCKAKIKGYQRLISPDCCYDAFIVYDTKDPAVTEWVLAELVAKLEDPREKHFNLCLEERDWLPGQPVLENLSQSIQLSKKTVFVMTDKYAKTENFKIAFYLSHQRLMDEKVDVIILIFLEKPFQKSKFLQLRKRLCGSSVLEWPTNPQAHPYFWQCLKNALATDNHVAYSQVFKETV
Nature of the test: In vitro human TLR7 reporter assay (HEK-Blue, NF-kB/AP1-inducible SEAP). Conditions: at 50 μM. Type of test: cell-based. The procedure:
(§1) In Vitro Human TLR7 and TLR8 Binding Reporter Assays Logarithmically-growing human HEK-Blue cells co-expressing a TLR7 or TLR8 gene and a NF-kB/AP1-inducible SEAP (secreted embryonic alkaline phosphatase; […] Cellular SEAP production is measured using an Envision plate reader instrument thirty minutes after adding freshly-made Quanti-Blue reagent (prepared by following manufacturer instructions; Invivogen, San Diego, CA) to the HEK-Blue TLR Nf-kB-SEAP cell reactions. All EC50 values (half-maximal effective concentration) are determined using proprietary data analysis software.

The target of a further test is T2, human TLR8 (Homo sapiens, UniProt Q9NR97).
T2 construct: host or cells: human HEK-Blue cells with NF-kB/AP1-inducible SEAP reporter
T2 sequence (Q9NR97 27-1041): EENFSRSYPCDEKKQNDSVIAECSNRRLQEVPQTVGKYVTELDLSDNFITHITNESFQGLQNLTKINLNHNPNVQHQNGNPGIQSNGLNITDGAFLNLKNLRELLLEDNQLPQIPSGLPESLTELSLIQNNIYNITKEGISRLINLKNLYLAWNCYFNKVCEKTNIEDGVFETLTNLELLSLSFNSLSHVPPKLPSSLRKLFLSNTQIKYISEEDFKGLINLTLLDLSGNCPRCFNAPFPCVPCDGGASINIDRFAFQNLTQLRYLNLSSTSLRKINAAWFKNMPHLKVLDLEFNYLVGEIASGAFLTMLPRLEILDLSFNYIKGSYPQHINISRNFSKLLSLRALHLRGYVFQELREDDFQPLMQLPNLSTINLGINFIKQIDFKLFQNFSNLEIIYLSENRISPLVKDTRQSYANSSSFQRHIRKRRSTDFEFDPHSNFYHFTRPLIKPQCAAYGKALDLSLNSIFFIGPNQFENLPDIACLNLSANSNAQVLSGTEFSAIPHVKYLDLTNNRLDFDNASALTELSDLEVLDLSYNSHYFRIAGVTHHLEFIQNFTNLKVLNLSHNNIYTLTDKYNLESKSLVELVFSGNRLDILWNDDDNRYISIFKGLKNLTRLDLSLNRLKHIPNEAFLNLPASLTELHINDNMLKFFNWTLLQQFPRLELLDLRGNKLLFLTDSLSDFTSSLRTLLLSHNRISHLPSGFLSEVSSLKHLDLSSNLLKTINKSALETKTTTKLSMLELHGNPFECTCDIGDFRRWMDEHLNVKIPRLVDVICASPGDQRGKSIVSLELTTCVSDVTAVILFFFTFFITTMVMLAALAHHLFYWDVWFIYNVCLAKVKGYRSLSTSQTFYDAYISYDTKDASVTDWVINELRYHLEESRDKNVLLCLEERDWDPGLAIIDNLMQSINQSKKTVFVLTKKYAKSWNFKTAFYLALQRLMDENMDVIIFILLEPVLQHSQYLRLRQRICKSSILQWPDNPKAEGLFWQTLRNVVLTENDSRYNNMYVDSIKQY
Nature of the test: In vitro human TLR8 reporter assay (HEK-Blue, NF-kB/AP1-inducible SEAP). Type of test: cell-based. Conditions: at 50 μM. Here is the method: as §1

As to `Nc1nc(OCCO)c2ccc(-c3ccn[nH]3)cc2n1` [Example 4, 2-((2-amino-7-(1H-pyrazol-3-yl)quinazolin-4-yl)oxy)ethan-1-ol], the TLR7 agonist activity at human TLR7 is less than 50%. This compound also registered a TLR8 agonist activity at human TLR8 of less than 50%.

The values above are taken from patent US12187706B2, “NLRP3 modulators” (INNATE TUMOR IMMUNITY, INC., priority 2019, dated 2025).
